Our source for the TGI and GI50 values is PubChem BioAssay (NCI).

Test systems include NCI-H460 lung; OVCAR-8 ovarian; 786-0 renal; HCT-15 colon; UACC-257 melanoma; CAKI-1 renal; TK-10 renal; ACHN renal; HL-60(TB) leukemia; HS 578T breast.
Assay in all cases: NCI anticancer screen, dose series, 48 h

The structures appear in SMILES notation.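 Test compounds were applied to cells in 96-well plates for 48 hours at 5 doses. Here, GI50 denotes the concentration required for 50% inhibition of growth. TGI is the concentration that stops growth completely.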 Where only a bound is given, the exact number is not on record here.

On to `COC(=O)/C=C/C1C(C(=O)OC)C2(C(=O)OC)CCC1(C(=O)OC)N2` (configuration not stated), for which the TGI in the assay with NCI-H460 lung, in the assay on OVCAR-8 ovarian, with 786-0 renal, with HCT-15 colon, in the assay with UACC-257 melanoma and in the assay with CAKI-1 renal was more than 100 µM in each case. Also, the TGI with TK-10 renal, with ACHN renal and with HL-60(TB) leukemia was more than 100 µM each time.

On to `Cc1c[n+](Cc2ccc3ccccc3c2)cn1Cc1ccc2ccccc2c1`, for which the GI50 is 1.72 µM with NCI-H460 lung; 1.89 µM in the assay with OVCAR-8 ovarian; 1.71 µM in the assay with 786-0 renal; 10.3 µM in the assay with HCT-15 colon; 1.46 µM in the assay on UACC-257 melanoma; 1.82 µM in the assay on TK-10 renal. Further, the GI50 in the assay on ACHN renal was 5.41 µM; in the assay with HS 578T breast, 2.22 µM; with HL-60(TB) leukemia, 0.514 µM. In addition, the TGI with NCI-H460 lung was found to be 3.65 µM; with OVCAR-8 ovarian, 4.01 µM; in the assay on 786-0 renal it was 3.63 µM; in the assay with HCT-15 colon, 24.2 µM; in the assay on UACC-257 melanoma, 3.16 µM; in the assay on TK-10 renal, 3.73 µM. Moreover, the TGI amounted to 19.4 µM in the assay with ACHN renal, 6.65 µM in the assay with HS 578T breast and 2.34 µM in the assay on HL-60(TB) leukemia.

As for `O=C(Nc1ccc([N+](=O)[O-])cc1)C1C(=O)C(=O)N(c2ccc([N+](=O)[O-])cc2)C1=O` (configuration not stated), the TGI in the assay on NCI-H460 lung, in the assay on OVCAR-8 ovarian, in the assay on 786-0 renal, in the assay on HCT-15 colon, in the assay with UACC-257 melanoma and in the assay on CAKI-1 renal was more than 100 µM throughout. Further, the TGI with TK-10 renal, with ACHN renal and in the assay with HL-60(TB) leukemia was more than 100 µM each time.

Turning to `O=C1CSC(Cc2nc3ccccc3[nH]2)=N1`, the TGI in the assay on OVCAR-8 ovarian is 74.9 µM; in the assay with 786-0 renal, 32.6 µM; in the assay with HCT-15 colon, 37.7 µM; with UACC-257 melanoma it was more than 90.7 µM; with CAKI-1 renal, 31.4 µM; with TK-10 renal, 48.1 µM. For the same compound, the TGI in the assay on ACHN renal turned out to be 9.79 µM; with HL-60(TB) leukemia it was 97.5 µM.

As for `O=C(/C=C/c1ccccc1)/C=C/c1ccccc1`, the TGI in the assay on NCI-H460 lung is 65.5 µM; in the assay with 786-0 renal it was 85.5 µM; in the assay with HCT-15 colon it was 70.5 µM; in the assay with UACC-257 melanoma it was 87 µM; in the assay with CAKI-1 renal it was more than 100 µM; with TK-10 renal it was more than 100 µM. Besides, the figures for the TGI with ACHN renal and in the assay on HL-60(TB) leukemia were 38.2 µM and 78.8 µM, respectively.

Consider `CCCCCCCCCc1cc(=O)c2c(O)cccc2o1`, for which the TGI with NCI-H460 lung, in the assay on OVCAR-8 ovarian, in the assay on 786-0 renal, in the assay with HCT-15 colon, with UACC-257 melanoma and with CAKI-1 renal was more than 100 µM in each case. In addition, the TGI was more than 100 µM in the assay on TK-10 renal, more than 100 µM in the assay on ACHN renal and 93.9 µM in the assay on HL-60(TB) leukemia.

`CN=NN(C)C(=O)NC`: the TGI in the assay with NCI-H460 lung, with OVCAR-8 ovarian, in the assay with 786-0 renal, in the assay on HCT-15 colon, in the assay with CAKI-1 renal and in the assay with TK-10 renal was more than 100 µM throughout. Moreover, the TGI with ACHN renal and with HL-60(TB) leukemia was more than 100 µM in each case.

For the compound `CCOC(=O)c1[nH]c(COC(C)=O)c(CCCOC(C)=O)c1CCCOC(C)=O`, the TGI in the assay on NCI-H460 lung, in the assay with OVCAR-8 ovarian, with 786-0 renal, in the assay with HCT-15 colon, with UACC-257 melanoma and with CAKI-1 renal was more than 100 µM throughout. Further, the TGI in the assay on TK-10 renal, in the assay on ACHN renal and in the assay with HL-60(TB) leukemia was more than 100 µM in each case.

In the case of `Cc1cc(C)n(CCNCCn2nc(C)cc2C)n1`, the TGI is more than 100 µM in the assay on NCI-H460 lung; more than 100 µM in the assay with OVCAR-8 ovarian; more than 100 µM in the assay on 786-0 renal; more than 1 µM in the assay on HCT-15 colon; more than 100 µM with UACC-257 melanoma; more than 100 µM in the assay on CAKI-1 renal. For the same compound, the TGI with TK-10 renal, with ACHN renal and in the assay with HL-60(TB) leukemia was more than 100 µM in each case.

Turning to `C#CC(=O)Nc1cccc(Nc2nc3c(c(NCc4ccccc4)n2)CCCC3)c1`, the GI50 with OVCAR-8 ovarian was 0.0144 µM; in the assay on 786-0 renal, less than 0.01 µM; in the assay with HCT-15 colon, 0.231 µM; with TK-10 renal, 1.49 µM; with ACHN renal, less than 0.0113 µM. The TGI with OVCAR-8 ovarian is 1.12 µM; in the assay with 786-0 renal, less than 0.01 µM; in the assay on HCT-15 colon, 1.14 µM; in the assay on TK-10 renal, 2.85 µM; in the assay on ACHN renal, less than 0.0317 µM.

In the case of `O=C(CCC/C(CC(=O)c1ccc(Br)cc1)=N\O)Nc1ccccc1`, the TGI with NCI-H460 lung, in the assay on OVCAR-8 ovarian, in the assay on 786-0 renal, in the assay on UACC-257 melanoma, with TK-10 renal and in the assay with ACHN renal was more than 100 µM each time. The compound further had a TGI in the assay on HL-60(TB) leukemia of more than 100 µM.

For `CC(=O)Oc1ccccc1C(=O)N=C1[Se]CCCN1C(=O)c1ccccc1OC(C)=O`, the GI50 in the assay with NCI-H460 lung is 2 µM; in the assay on 786-0 renal it was 2.14 µM; in the assay on HCT-15 colon, 2.53 µM; in the assay on TK-10 renal, 1.87 µM; with ACHN renal it was 2.3 µM; with HS 578T breast, 2.07 µM. The GI50 in the assay on HL-60(TB) leukemia was 2.14 µM. For the same compound, the TGI in the assay on NCI-H460 lung is 5.5 µM; with 786-0 renal, 4.21 µM; in the assay on HCT-15 colon, 7.28 µM; with TK-10 renal it was 3.81 µM; with ACHN renal, 4.79 µM; with HS 578T breast, 6.32 µM. This compound also registered a TGI with HL-60(TB) leukemia of 5.63 µM.

`CC(C)(C)N1CC2(CCCCC2)C1=O`: the TGI in the assay with NCI-H460 lung, with OVCAR-8 ovarian, in the assay on 786-0 renal, with HCT-15 colon, with UACC-257 melanoma and in the assay with CAKI-1 renal was more than 100 µM in each case. Further, the TGI in the assay with TK-10 renal, in the assay with ACHN renal and in the assay on HL-60(TB) leukemia was more than 100 µM each time.
